Like-named read-outs stand apart in the source and are kept apart here. Non-standard residues stand in square brackets, D forms with d. Residues, ends and D or L forms follow the SMILES beside them. No end group written: not given here. Dap = NC[C@H](N)C(=O)O
Legend:
S. aureus ATCC: 27660 = type: cell-based, Staphylococcus aureus
Method: (§1) Each bacterial strain was streaked onto LB–Miller agar (BD-Difco, Franklin Lakes, NJ, USA) plates from a frozen stock collection (E. coli D31 [63] S. aureus ATCC: 27660, B. subtilis ATCC: 6051, P. aeruginosa PAO1 [17], and A. baumannii ATCC: 19606). After incubation to allow colony growth, plates stored in a refrigerator at 4 °C. Overnight cultures were inoculated with a single colony of each bacterial strain into fresh LB or Mueller Hinton broth (MH, BD-Difco) in sterile glass test tubes. Inoculated samples were placed in a 37 °C shaking incubator (250 rpm) for ~18 h. After the overnight incubation, a 1:200 dilution of the culture was made in fresh LB or MH for use in subsequent experiments.
(§2) Bacterial growth inhibition was investigated using the standard minimal inhibitory concentration (MIC) assay. Cultures of bacteria were grown as described above, subsequently diluted to ~10^5 cfu/mL in MH media. Subsequently, 90 μL of this diluted culture was added to wells of a sterile 96-well plate containing serially diluted aliquots of the peptides for a final volume in the well of 100 μL. The plate was covered and incubated at 37 °C for 18 h. After incubation the OD600 was measured with a Spectramax M5 multimode plate reader. Next, the minimal bactericidal concentration (MBC) was determined by taking 1 μL of culture from each well on the plate corresponding to peptide concentrations at and above the MIC and plating on a fresh LB-agar plate. The plate incubated overnight at 37 °C, and MBC was determined from the presence or absence of growth on each spot.

E. coli outer membrane = E. coli outer membrane permeabilization (β-lactamase / nitrocefin); type: cell-based; conditions: E. coli D31 in PBS, peptide up to 15 µM, 30 min exposure, absorbance 486 nm, at least 3 replicates
Method: Permeabilization of the E. coli outer membrane is monitored using the periplasmic enzyme β-lactamase and the chromogenic substrate nitrocefin. […] The full time course of the permeabilization assay is shown in the supplementary files (Figure S1).
(§3) Figure 4 E. coli membrane permeabilization. Chromogenic substrate breakdown after 30 min of exposure to peptides. (A) Outer membrane permeabilization assayed by nitrocefin breakdown. (B) Inner membrane permeabilization assayed by ONPG breakdown. In both panels colors represent C18G (green), C18G-Arg (red), C18G-His (gray), C18G-Orn (orange), C18G-Dap (blue).
Permeabilization of the E. coli outer membrane was performed as described previously. Briefly, a single colony of E. coli D31 was inoculated in LB Broth (Difco) containing […] ampicillin and allowed to grow at 37 °C with shaking overnight. The culture was diluted 1:200 in LB-Amp and incubated at 37 °C until the OD600 was ~0.2. The culture was subsequently centrifuged at 2500 rpm for 15 min. The pellet was resuspended in an equal volume of PBS and added to a 96-well plate containing serially diluted peptides or polymyxin B (positive control). Immediately before reading, nitrocefin was added to the wells (final concentration 0.25 mg/mL) and mixed by pipetting. The sample absorbance was measured at 486 nm for 90 min. All assays were performed at least in triplicate.

E. coli inner membrane = E. coli inner membrane permeabilization (β-galactosidase / ONPG); type: cell-based; conditions: peptide up to 15 µM, 30 min time point, absorbance 420 nm, at least 3 replicates
Method: as §3
Permeabilization of the E. coli inner membrane is monitored with the cytoplasmic enzyme β-galactosidase and the chromogenic substrate ortho-nitrophenyl-β-galactoside (ONPG). This assay in conceptually similar to the outer membrane assay described above, but is focused only on the permeability of the inner membrane. The results are shown in Figure 4B for the 30 min time point of the assay, and the full time course is shown in the supplementary figures (Figure S2).
Inner membrane permeabilization was performed as described previously. The procedure follows that of the outer membrane permeabilization assay, described above, with several modifications. Bacteria were grown overnight in LB media lacking Amp, and dilutions were made in LB supplemented with IPTG. Assay plates were prepared the same, except that cells were not centrifuged before the assay, and were added to the plate directly in the culture medium. Positive control for the inner membrane assay was the cationic detergent CTAB. The substrate was ONPG dissolved in Z-buffer added to a final concentration 0.6 mg/mL in the wells. The sample absorbance was measured at 420 nm for 90 min. All assays were performed at least in triplicate

B. subtilis ATCC: 6051 = type: cell-based, Bacillus subtilis
Method: as §1, §2

S. aureus membrane = S. aureus membrane permeabilization (propidium iodide, flow cytometry); type: cell-based; conditions: 30 min, relative to CTAB positive control
Method: The membrane architecture varies greatly between Gram-positive and Gram-negative bacteria. The ability of the peptides to permeabilize a Gram-positive bacterial membrane was also investigated; however, in this case, the use of a bacterial enzyme and chromogenic substrate was not possible. Instead, membrane permeability was assessed using the DNA binding fluorophore propidium iodide (PI). The PI molecule is generally impermeable across the cell membrane under normal conditions, but upon permeabilization, PI can readily cross the membrane and bind to DNA, resulting in a dramatic increase in fluorescence emission intensity.
Figure 5 Membrane permeabilization. (A) Permeabilization of S. aureus membranes by peptides. Cultures of S. aureus were incubated with varying concentrations of peptide and 3.75 µg/mL propidium iodide (PI). PI fluorescence was measured via flow cytometry after 30 min of exposure to peptides. Percent leakage was determined based on the positive control CTAB (data not shown). (B) Peptide induced hemolysis. Defibrinated sheep red blood cells were incubated for 1 h with varying concentrations of peptide or control at 37 °C in sterile PBS. After pelleting the remaining cells, the absorbance of the supernatant was measured at 415 nm to detect released hemoglobin. Percent leakage was determined based on the positive control CTAB (Figure S3). All data is the average of at least 3 replicates, where error bars represent the standard deviation.
Flow cytometry was used to identify cell permeability by incorporation of propidium iodide (PI) into S. aureus under various concentrations of CTAB detergent, C18G, C18G-Arg, C18G-His, C18G-Orn, C18G-Dap peptides using a BD FACSCelesta flow cytometer. Approximately 10,000 cells per sample in 100 µL of PBS, permeabilization reagent, and PI 5.6 μM solution, were incubated for 30 min or 45 min at 23 °C counted in duplicate, and fluorescent signal was evaluated Ex 488 nm laser, Em 575 filter. Percentage of cells found to be permeable for all samples was established by gating around cells on histogram illustrating PI signal with known complete permeabilization CTAB 102 µM.

[1] = Trp fluorescence binding to lipid vesicles; conditions: 2 µM peptide in PBS pH 7.0 titrated with SUVs up to 300 µM lipid, excitation 280 nm, 2-5 replicates
Excerpt: Based on the proposed mechanism of membrane disruption, the ability of the C18G peptides to interact with lipid vesicles was investigated. All of the sequences contain a Trp residue which can be used as a reporter of the local environment. As the peptide moves from the aqueous milieu to the bilayer surface, the Trp experiences a significant change in the polarity of the local environment. This change in environmental polarity results in a shift of the Trp emission spectrum from more red-shifted (aqueous) to more blue-shifted (bilayer bound). […] The shift in the emission spectrum can be quantified by changes in […] (λmax) or by a shift in the spectral barycenter.
Figure 2 Trp fluorescence emission to measure peptide binding to vesicles. […] Trp emission barycenter was calculated after each addition of vesicles and plotted as a function of total lipid concentration. […]
Measurements were performed on a JY-Horiba fluoromax4 instrument with emission and excitation slits set to 2.5 nm. For lipid binding/titration assays, samples were excited at 280 nm with emission measured over the range of 300–400 nm. […] The barycenter of the spectrum is an intensity-weighted average over the wavelengths measured, and Δbarycenter is the difference between the barycenter of the sample lacking lipid, and that of a given sample [32, 65]. […]

[2] = MH media, ~10^5 cfu/mL, 37 °C, 18 h, OD600

Molecule: CC(C)C[C@H](NC(=O)[C@H](C)N)C(=O)N[C@@H](Cc1c[nH]c2ccccc12)C(=O)N[C@@H](CN)C(=O)N[C@@H](CN)C(=O)N[C@@H](CC(C)C)C(=O)N[C@@H](CC(C)C)C(=O)N[C@@H](CN)C(=O)N[C@@H](CN)C(=O)N[C@@H](CC(C)C)C(=O)N[C@@H](CC(C)C)C(=O)N[C@@H](CN)C(=O)N[C@@H](CO)C(=O)N[C@@H](C)C(=O)N[C@@H](CN)C(=O)N[C@@H](CN)C(=O)N[C@@H](CC(C)C)C(=O)NCC(N)=O [C18G-Dap] (H-ALW[Dap][Dap]LL[Dap][Dap]LL[Dap]SA[Dap][Dap]LG-NH2)
- S. aureus MBC (S. aureus ATCC: 27660; ATCC: 27660, 18 h): 7.5 µM
- S. aureus MIC (S. aureus ATCC: 27660; ATCC: 27660, 18 h): 7.5 µM
- Fold increase in MIC relative to the parent sequence (S. aureus ATCC: 27660; against S. aureus): ≤ 4 fold
- Outer membrane permeabilization (nitrocefin breakdown) (E. coli outer membrane): permeabilization to a lesser extent
- Inner membrane permeabilization (ONPG breakdown) (E. coli inner membrane): little to no permeabilization
- B. subtilis MBC (B. subtilis ATCC: 6051; ATCC: 6051, 18 h): 1.875 µM
- B. subtilis MIC (B. subtilis ATCC: 6051; ATCC: 6051, 18 h): 1.875 µM

Molecule: CC(C)C[C@H](NC(=O)[C@H](C)N)C(=O)N[C@@H](Cc1c[nH]c2ccccc12)C(=O)N[C@@H](CCCN)C(=O)N[C@@H](CCCN)C(=O)N[C@@H](CC(C)C)C(=O)N[C@@H](CC(C)C)C(=O)N[C@@H](CCCN)C(=O)N[C@@H](CCCN)C(=O)N[C@@H](CC(C)C)C(=O)N[C@@H](CC(C)C)C(=O)N[C@@H](CCCN)C(=O)N[C@@H](CO)C(=O)N[C@@H](C)C(=O)N[C@@H](CCCN)C(=O)N[C@@H](CCCN)C(=O)N[C@@H](CC(C)C)C(=O)NCC(N)=O [C18G-Orn] (HELM PEPTIDE1{A.L.W.[Orn].[Orn].L.L.[Orn].[Orn].L.L.[Orn].S.A.[Orn].[Orn].L.G.[am]}$$$$V2.0)
- S. aureus MBC (S. aureus ATCC: 27660; ATCC: 27660, 18 h): 1.875 µM
- S. aureus MIC (S. aureus ATCC: 27660; ATCC: 27660, 18 h): 1.875 µM
- Outer membrane permeabilization (nitrocefin breakdown) (E. coli outer membrane): near maximal permeabilization observed above 3.75 µM
- Percent leakage (PI) of S. aureus membrane (S. aureus membrane; through 1.88 µM peptide): > 50%
- Inner membrane permeabilization (ONPG breakdown) (E. coli inner membrane): very little observed leakage
- B. subtilis MBC (B. subtilis ATCC: 6051; ATCC: 6051, 18 h): 7.5 µM
- B. subtilis MIC (B. subtilis ATCC: 6051; ATCC: 6051, 18 h): 3.75 µM

Molecule: ALWHHLLHHLLHSAHHLG-NH2 [C18G-His]
- Binding to 3:1 PC/PG lipid vesicles (shift of Trp emission barycenter) [1]: bound anionic bilayers with higher affinity than zwitterionic bilayers
- S. aureus MBC (S. aureus ATCC: 27660; ATCC: 27660, 18 h): 15 µM
- S. aureus MIC (S. aureus ATCC: 27660; ATCC: 27660, 18 h): 15 µM
- Outer membrane permeabilization (nitrocefin breakdown) (E. coli outer membrane): almost no permeabilization of the outer membrane except at 15 µM
- Percent leakage (PI) of S. aureus membrane (S. aureus membrane; 7.5 µM peptide): > 50%
- Percent leakage (PI) of S. aureus membrane (S. aureus membrane; 15 µM peptide): > 50%
- Inner membrane permeabilization (ONPG breakdown) (E. coli inner membrane): little to no permeabilization
- B. subtilis MBC (B. subtilis ATCC: 6051; ATCC: 6051, 18 h): >15 µM
- B. subtilis MIC (B. subtilis ATCC: 6051; ATCC: 6051, 18 h): 1.875 µM

Molecule: ALWKKLLKKLLKSAKKLG-NH2 [C18G]
- S. aureus MBC (S. aureus ATCC: 27660; ATCC: 27660, 18 h): 3.75 µM
- S. aureus MIC (S. aureus ATCC: 27660; [2]): 1.875 µM
- Outer membrane permeabilization (nitrocefin breakdown) (E. coli outer membrane): near maximal permeabilization observed above 3.75 µM
- Inner membrane permeabilization (ONPG breakdown) (E. coli inner membrane): highest degree of permeabilization
- B. subtilis MBC (B. subtilis ATCC: 6051; 1 µL from wells at and above MIC plated on LB-agar, overnight 37 °C): 1.875 µM
- B. subtilis MIC (B. subtilis ATCC: 6051; [2]): 1.875 µM

Molecule: ALWRRLLRRLLRSARRLG-NH2 [C18G-Arg]
- Binding to 100% PC lipid vesicles (shift of Trp emission barycenter) [1]: significant increase in binding to zwitterionic PC membranes compared to C18G
- S. aureus MBC (S. aureus ATCC: 27660; ATCC: 27660, 18 h): 3.75 µM
- S. aureus MIC (S. aureus ATCC: 27660; ATCC: 27660, 18 h): 3.75 µM
- Outer membrane permeabilization (nitrocefin breakdown) (E. coli outer membrane): near maximal permeabilization observed above 3.75 µM
- Percent leakage (PI) of S. aureus membrane (S. aureus membrane; down through 3.75 µM peptide): ~ 90%
- Inner membrane permeabilization (ONPG breakdown) (E. coli inner membrane): induced less leakage
- B. subtilis MBC (B. subtilis ATCC: 6051; ATCC: 6051, 18 h): 1.875 µM
- B. subtilis MIC (B. subtilis ATCC: 6051; ATCC: 6051, 18 h): 1.875 µM
